According to ChEMBL document CHEMBL1135348, “Synthesis and anticancer evaluation of vitamin K(3) analogues” (Bioorg Med Chem Lett, 2002):

Assays:
MCF7 = assay: Concentration required for 50% inhibition of growth in mammary gland breast adenocarcinoma (MCF-7) cell line was determined; format: functional, cell-based; conditions: Homo sapiens
HepG2 = assay: Concentration required for 50% inhibition of growth in human liver hepatoblastoma (Hep G2) cell line was determined; format: functional, cell-based
SW480 = assay: Concentration required for 50% inhibition of growth in human colon adenocarcinoma (SW-480) cell line.; format: functional, cell-based
MKN-45 = assay: Concentration required for 50% inhibition of growth in human stomach adenocarcinoma (MKN45) cell line was determined; format: functional, cell-based
NPC-TW-039 = assay: Concentration required for 50% inhibition of growth in human nasopharyngeal carcinoma (TW-039) cell line was determined
[1] = Concentration required for 50% inhibition of growth in human multidrug resistance uterine sarcoma (MES-SA/Dx5 ) cell line was determined; format: functional, cell-based
A549 = assay: Concentration required for 50% inhibition of growth in human lung carcinoma cell line was determined; format: functional, cell-based
MES-SA = assay: Concentration required for 50% inhibition of growth in human uterine sarcoma (MES-SA) cell line was determined; format: functional, cell-based
Detroit 551 [2] = assay: Concentration required for 50% inhibition of growth in normal human embryonic skin fibroblast (Detroit551c) cell line was determined; format: functional, cell-based
WI-38 = assay: Concentration required for 50% inhibition of growth in normal human lung fibroblast (WI-38 cell line) cell line was determined; format: functional, cell-based
[3] = Dose required for 50% inhibition of growth of Hep3B cells; format: functional, Hep 3B2; conditions: Homo sapiens, read-out: ID50 (the source's name)
Detroit 551 [4] = assay: Concentration required for 50% inhibition of growth in normal human embryonic skin fibroblast cell line was determined; format: functional, cell-based

| Structure (SMILES) | IC50 (MCF7) | IC50 (HepG2) | IC50 (SW480) | IC50 (MKN-45) | IC50 (NPC-TW-039) | IC50 [1] | IC50 (A549) | IC50 (MES-SA) | IC50 (Detroit 551 [2]) | IC50 (WI-38) | IC50 [3] | IC50 (Detroit 551 [4]) |
| --- | --- | --- | --- | --- | --- | --- | --- | --- | --- | --- | --- | --- |
| CC1=C(SCCCO)C(=O)c2ccccc2C1=O | 5.16 µM | 9.53 µM | 4.85 µM | 6.4 µM | > 10 µM | > 10 µM | > 10 µM | > 10 µM | 5.26 µM | > 10 µM | – | – |
| CCCCC1=C(C)C(=O)c2ccccc2C1=O | – | – | – | – | – | – | – | – | – | – | 78 µM | – |
| CC1=C(SCCCCO)C(=O)c2ccccc2C1=O | 5.78 µM | > 10 µM | 4.51 µM | 6.78 µM | > 10 µM | > 10 µM | > 10 µM | > 10 µM | – | > 10 µM | – | 7.57 µM |
| CC1=C(SCCCCCCO)C(=O)c2ccccc2C1=O | 9.28 µM | > 10 µM | > 10 µM | > 10 µM | > 10 µM | > 10 µM | > 10 µM | > 10 µM | – | > 10 µM | – | > 10 µM |
| CCCCCCCCSC1=C(C)C(=O)c2ccccc2C1=O | – | – | – | – | – | – | – | – | – | – | 100 µM | – |
| CC1=C(SCCO)C(=O)c2ccccc2C1=O | 5.19 µM | 8.4 µM | 5.14 µM | 5.16 µM | > 10 µM | > 10 µM | > 10 µM | > 10 µM | 8.17 µM | 7.37 µM | 5.6 µM | – |
| CCCCOC1=C(C)C(=O)c2ccccc2C1=O | – | – | – | – | – | – | – | – | – | – | 55 µM | – |
| CCCCCCCCOC1=C(C)C(=O)c2ccccc2C1=O | – | – | – | – | – | – | – | – | – | – | 140 µM | – |
| CC1=C(SC(C)C(C)O)C(=O)c2ccccc2C1=O (stereo not drawn) | > 10 µM | > 10 µM | 5.53 µM | 5.64 µM | > 10 µM | > 10 µM | > 10 µM | > 10 µM | – | > 10 µM | – | > 10 µM |
| CCCSC1=C(C)C(=O)c2ccccc2C1=O | – | – | – | – | – | – | – | – | – | – | 14 µM | – |
| CCCCSC1=C(C)C(=O)c2ccccc2C1=O | – | – | – | – | – | – | – | – | – | – | 15 µM | – |
| CC1=C(SCC(C)O)C(=O)c2ccccc2C1=O (racemic) | 4.61 µM | 5.59 µM | 5.19 µM | 3.92 µM | > 10 µM | 5.1 µM | 4.74 µM | 7.11 µM | 4.61 µM | 5.06 µM | – | – |
| CC1=CC(=O)c2ccccc2C1=O [MENADIONE] | – | – | – | – | – | – | – | – | – | – | 10 µM | – |
